Legend:
SCPJU = test: Post-emergence foliar-applied weed control, greenhouse (Example I); format: in vivo, Schoenoplectus juncoides (Roxb.) Palla
Description: (§1) Evaluation of Post-emergence Foliar-Applied Herbicidal Mixtures for Weed Control in Direct Seeded Rice
(§2) Seeds or nutlets of the desired test plant species were planted in a soil matrix prepared by mixing a loam or sandy loam soil (e.g., 28.6 percent silt, 18.8 percent clay, and 52.6 percent sand, with a pH of about 5.8 and an organic matter content of about 1.8 percent) and calcareous grit in an 80 to 20 ratio. The soil matrix was contained in plastic pots with a volume of 1 quart and a surface area of 83.6 square centimeters (cm^2). When required to ensure good germination and healthy plants, a fungicide treatment and/or other chemical or physical treatment was applied. The plants were grown for 8-22 days in a greenhouse with an approximate 14 h photoperiod which was maintained at about 29° C. during the day and 26° C. during the night. Nutrients (Peters Excel® 15-5-15 5-Ca 2-Mg and iron chelate) were applied in the irrigation solution as needed and water was added on a regular basis. Supplemental lighting was provided with overhead metal halide 1000-Watt lamps as necessary. The plants were employed for testing when they reached the first through fourth true leaf stage.
(§3) Treatments consisted of the acid or esters of 4-amino-3-chloro-5-fluoro-6-(4-chloro-2-fluoro-3-methoxy-phenyl)pyridine-2-carboxylic acid (Compound A), each formulated as an SC (suspension concentrate), and various herbicidal components alone and in combination. Forms of Compound A were applied on an acid equivalent basis.
(§4) Other herbicidal components were applied on an active ingredient basis and included 4-hydroxyphenyl pyruvate dioxygenase (HPPD)-inhibiting herbicides mesotrione formulated as Callisto®, sulcotrione formulated as Mikado®, pyrazolynate formulated as Sunbird® 10% GR, and benzobicyclon formulated as Benzobicyclon 3.5%.
(§5) Treatment requirements were calculated based upon the rates being tested, the concentration of active ingredient or acid equivalent in the formulation, and a 12 mL application volume at a rate of 187 L/ha.
(§6) For treatments comprised of formulated compounds, measured amounts of compounds were placed individually in 25 mL glass vials and diluted in a volume of 1.25% (v/v) Agri-Dex® crop oil concentrated to obtain 12× stock solutions. […] Application solutions were prepared by adding an appropriate amount of each stock solution (e.g., 1 mL) and diluted to the appropriate final concentrations with the addition of 10 mL of an aqueous mixture of 1.25% (v/v) crop oil concentrate so that the final spray solutions contained 1.25+/−0.05% (v/v) crop oil concentrate.
(§7) For treatments comprised of formulated and technical compounds, weighed amounts of the technical materials were placed individually in 25 mL glass vials and dissolved in a volume of 97:3 v/v acetone/DMSO to obtain 12× stock solutions, and measured amounts of the formulated compounds were placed individually in 25 mL glass vials and diluted in a volume of 1.5% (v/v) crop oil concentrate or water to obtain 12× stock solutions. […] Application solutions were prepared by adding an appropriate amount of each stock solution (e.g., 1 mL) and diluted to the appropriate final concentrations with the addition of an appropriate amount of an aqueous mixture of 1.5% (v/v) crop oil concentrate so that the final spray solutions contained 1.25% (v/v) crop oil concentrate. As required, additional water and/or 97:3 v/v acetone/DMSO was added to individual application solutions so that the final acetone and DMSO concentrations of the application solutions being compared were 8.1% and 0.25%, respectively.
(§8) All stock solutions and applications solutions were visually inspected for compound compatibility prior to application. Spray solutions were applied to the plant material with an overhead Mandel track sprayer equipped with a 8002E nozzles calibrated to deliver 187 L/ha over an application area of 0.503 m^2 at a spray height of 18 to 20 inches (46 to 50 cm) above average plant canopy height. […]

ECHCO = test: as above; format: in vivo, Echinochloa colona (L.) Link
Description: as §1, §2, §3, §4, §5, §6, §7, §8

FIMMI = test: In-water applied weed control, transplanted paddy rice, greenhouse (Example II); format: in vivo, Fimbristylis miliacea (L.) Vahl; conditions: 35 gai/ha
Description: (§9) Evaluation of in-Water Applied Herbicidal Mixtures for Weed Control in Transplanted Paddy Rice
(§10) Weed seeds or nutlets of the desired test plant species were planted in puddled soil (mud) prepared by mixing a shredded, non-sterilized mineral soil (50.5 percent silt, 25.5 percent clay, and 24 percent sand, with a pH of about 7.6 and an organic matter content of about 2.9 percent) and water at a 1:1 volumetric ratio. The prepared mud was dispensed in 365 mL aliquots into 16-ounce (oz.) non-perforated plastic pots with a surface area of 86.59 square centimeters (cm^2) leaving a headspace of 3 centimeters (cm) in each pot. Mud was allowed to dry overnight prior to planting or transplanting. Rice seeds were planted in Sun Gro MetroMix® 306 planting mixture, which typically has a pH of 6.0 to 6.8 and an organic matter content of about 30 percent, in plastic plug trays. Seedlings at the second or third leaf stage of growth were transplanted into 840 mL of mud contained in 32-oz. non-perforated plastic pots with a surface area of 86.59 cm^2 4 days prior to herbicide application. The paddy was created by filling the headspace of the pots with 2.5 to 3 cm of water. When required to ensure good germination and healthy plants, a fungicide treatment and/or other chemical or physical treatment was applied. The plants were grown for 4-22 days in a greenhouse with an approximate 14 h photoperiod which was maintained at about 29′C during the day and 26° C. during the night. Nutrients were added as Osmocote® (19:6:12, N:P:K+ minor nutrients) at 2 g per 16-oz. pot and 4 g per 32-oz. pot. Water was added on a regular basis to maintain the paddy flood, and supplemental lighting was provided with overhead metal halide 1000-Watt lamps as necessary. The plants were employed for testing when they reached the first through fourth true leaf stage.
as §3, with “(compound A)” for “(Compound A),”, “concentrate)” for “concentrate),”, “compound” for “Compound”
as §4, with “3.5% or technical material.” for “3.5%.”
(§11) Treatment requirements for each compound or herbicidal component were calculated based upon the rates being tested, the concentration of active ingredient or acid equivalent in the formulation, an application volume of 2 mL per component per pot, and an application area of 86.59 cm^2 per pot.
(§12) For formulated compounds, a measured amount was placed in an individual 100 or 200 mL glass vial and was dissolved in a volume of 1.25% (v/v) Agri-Dex® crop oil concentrate to obtain application solutions.
(§13) For technical grade compounds, a weighed amount was placed in an individual 100 to 200 mL glass vial and was dissolved in a volume of acetone to obtain concentrated stock solutions. […] The concentrated stock solutions obtained were diluted with an equivalent volume of an aqueous mixture containing 2.5% (v/v) crop oil concentrate so that the final application solutions contained 1.25% (v/v) crop oil concentrate.
(§14) Applications were made by injecting with a pipetter appropriate amounts of the application solutions, individually and sequentially, into the aqueous layer of the paddy. Control plants were treated in the same manner with the solvent blank. Applications were made so that all treated plant material received the same concentrations of acetone and crop oil concentrate.
(§15) The treated plants and control plants were placed in a greenhouse as described above and water was added as needed to maintain a paddy flood. […]

ECHOR = test: as above; format: in vivo, Echinochloa oryzoides (Ard.) Fritsch
Description: as §9, §10
as §3, with “(compound A)” for “(Compound A),”, “concentrate)” for “concentrate),”, “compound” for “Compound”
as §4, with “3.5% or technical material.” for “3.5%.”
as §11, §12, §13, §14, §15

CYPIR = test: Post-emergence foliar-applied weed control, greenhouse (Example I); format: in vivo, Cyperus iria L.
Description: as §1, §2, §3, §4, §5, §6, §7, §8

SCPMA = test: In-water applied weed control, transplanted paddy rice, greenhouse (Example II); format: in vivo
Description: as §9, §10
as §3, with “(compound A)” for “(Compound A),”, “concentrate)” for “concentrate),”, “compound” for “Compound”
as §4, with “3.5% or technical material.” for “3.5%.”
as §11, §12, §13, §14, §15

IPOHE = test: Post-emergence foliar-applied weed control, greenhouse (Example I); format: in vivo, Ipomoea hederacea Jacq.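 Note: visual score 0 no injury to 100 complete kill versus untreated plants.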
Description: as §1, §2, §3, §4, §5, §6, §7, §8

ECHCG [1] = test: In-water applied weed control, transplanted paddy rice, greenhouse (Example II); format: in vivo, Echinochloa crusgalli (L.) Beauv.; conditions: for Visual Weed Control (%) - 22 DAA ECHCG Obs: Benzobicyclon (3.5%);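 for Visual Weed Control (%) - 20 DAA ECHCG Obs: visual score 0 no injury to 100 complete kill versus untreated plants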
Description: as §9, §10
as §3, with “(compound A)” for “(Compound A),”, “concentrate)” for “concentrate),”, “compound” for “Compound”
as §4, with “3.5% or technical material.” for “3.5%.”
as §11, §12, §13, §14, §15

BRAPP = test: Post-emergence foliar-applied weed control, greenhouse (Example I); format: in vivo
Description: as §1, §2, §3, §4, §5, §6, §7, §8

DIGSA = test: as above; format: in vivo, Digitaria sanguinalis (L.) Scop.; conditions: 140 gaiha
Description: as §1, §2, §3, §4, §5, §6, §7, §8

CYPRO = test: In-water applied weed control, transplanted paddy rice, greenhouse (Example II); format: in vivo, Cyperus rotundus L.
Description: as §9, §10
as §3, with “(compound A)” for “(Compound A),”, “concentrate)” for “concentrate),”, “compound” for “Compound”
as §4, with “3.5% or technical material.” for “3.5%.”
as §11, §12, §13, §14, §15

ECHCG [2] = test: Post-emergence foliar-applied weed control, greenhouse (Example I); format: in vivo, Echinochloa crusgalli (L.) Beauv.
Description: as §1, §2, §3, §4, §5, §6, §7, §8

[3] = 50 gai/ha, Benzobicyclon (technical)
[4] = 100 gai/ha, Benzobicyclon (3.5%)
[5] = 200 gai/ha, Benzobicyclon (3.5%)
[6] = 100 gae/ha, Benzobicyclon (technical)

SMILES: CS(=O)(=O)c1ccc(C(=O)C2C(=O)CCCC2=O)c([N+](=O)[O-])c1 [Mesotrione, 2-[4-(methylsulfonyl)-2-nitrobenzoyl]-1,3-cyclohexanedione, reference compound]
- Visual Weed Control (%) - 20 DAA SCPJU Obs (SCPJU; 17.5 gai/ha): 50%
- Visual Weed Control (%) - 20 DAA SCPJU Obs (SCPJU; 35 gai/ha): 80%
- Visual Weed Control (%) - 20 DAA ECHCO Obs (ECHCO; 17.5 gai/ha): 0%
- Visual Weed Control (%) - 20 DAA ECHCO Obs (ECHCO; 35 gai/ha): 0%
- Visual Weed Control (%) - 20 DAA ECHCO Obs (ECHCO; 70 gai/ha): 0%
- Visual Weed Control (%) - 21 DAA FIMMI Obs (FIMMI): 78%
- Visual Weed Control (%) - 20 DAA ECHOR Obs (ECHOR; 140 gaiha): 80%
- Visual Weed Control (%) -20 DAA ECHOR Obs (ECHOR; 140 gaiha): 80%
- Visual Weed Control (%) - 20 DAA CYPIR Obs (CYPIR; 17.5 gai/ha): 0%
- Visual Weed Control (%) - 20 DAA CYPIR Obs (CYPIR; 35 gai/ha): 50%
- Visual Weed Control (%) - 21 DAA SCPMA Obs (SCPMA; 35 gai/ha): 80%
- Visual Weed Control (%) - 20 DAA IPOHE Obs (IPOHE; 35 gai/ha): 25%
- Visual Weed Control (%) - 20 DAA IPOHE Obs (IPOHE; 70 gai/ha): 50%
- Visual Weed Control (%) - 20 DAA ECHCG Obs (ECHCG [1]; 35 gai/ha): 10%
- Visual Weed Control (%) - 20 DAA ECHCG Obs (ECHCG [1]; 70 gai/ha): 25%
- Visual Weed Control (%) - 20 DAA BRAPP Obs (BRAPP; 17.5 gai/ha): 0%
- Visual Weed Control (%) - 20 DAA BRAPP Obs (BRAPP; 35 gai/ha): 0%
- Visual Weed Control (%) - 20 DAA DIGSA Obs (DIGSA): 58%

SMILES: CS(=O)(=O)c1ccc(C(=O)C2=C(Sc3ccccc3)C3CCC(C3)C2=O)c(Cl)c1 (stereo not drawn) [Benzobicyclon, 3-(2-chloro-4-mesylbenzoyl)-2-phenylthiobicyclo[3.2.1]oct-2-en-4-one, reference compound]
- Visual Weed Control (%) - 22 DAA SCPJU Obs (SCPJU; 50 gai/ha): 50%
- Visual Weed Control (%) - 22 DAA SCPJU Obs (SCPJU; 100 gai/ha): 60%
- Visual Weed Control (%) - 22 DAA SCPJU Obs (SCPJU; 200 gai/ha): 70%
- Visual Weed Control (%) - 22 DAA CYPRO Obs (CYPRO; [3]): 10%
- Visual Weed Control (%) - 22 DAA CYPRO Obs (CYPRO; [4]): 30%
- Visual Weed Control (%) - 22 DAA CYPRO Obs (CYPRO; [5]): 45%
- Visual Weed Control (%) - 22 DAA ECHCO Obs (ECHCO; 50 gai/ha): 10%
- Visual Weed Control (%) - 22 DAA ECHCO Obs (ECHCO; 100 gai/ha): 10%
- Visual Weed Control (%) - 22 DAA ECHCO Obs (ECHCO; 200 gai/ha): 85%
- Visual Weed Control (%) - 22 DAA ECHCG Obs (ECHCG [2]; 50 gai/ha): 0%
- Visual Weed Control (%) - 22 DAA ECHCG Obs (ECHCG [2]; 100 gai/ha): 20%
- Visual Weed Control (%) - 22 DAA ECHCG Obs (ECHCG [2]; 200 gai/ha): 15%
- Visual Weed Control (%) - 22 DAA ECHOR Obs (ECHOR; [3]): 50%
- Visual Weed Control (%) - 21 DAA ECHOR Obs (ECHOR; [6]): 30%
- Visual Weed Control (%) - 22 DAA CYPIR Obs (CYPIR; 100 gai/ha): 0%
- Visual Weed Control (%) - 22 DAA CYPIR Obs (CYPIR; 200 gai/ha): 0%
- Visual Weed Control (%) - 21 DAA SCPMA Obs (SCPMA; [6]): 80%
- Visual Weed Control (%) - 21 DAA SCPMA Obs (SCPMA; [4]): 70%
- Visual Weed Control (%) - 21 DAA SCPMA Obs (SCPMA; [5]): 93%
- Visual Weed Control (%) - 22 DAA ECHCG Obs (ECHCG [1]; 100 gai/ha): 30%
- Visual Weed Control (%) - 22 DAA ECHCG Obs (ECHCG [1]; 200 gai/ha): 45%
